Measurements published in patent US20080027098A1, “Derivatives of alpha-phenylthiocarboxylic and alpha-phenyloxy-carboxylic acids useful for the treatment of diseases responding to PPARalpha activation” (SIGMA-TAU INDUSTRIE FARMACEUTICHE RIUNITE S.p.A., priority 2002, published 2008).
Marks after values point to notes of the source that are not given here.

Assays:
[1] = test system: db/db mice; assay: Increase in HDL-cholesterol levels in db/db mice; assay type: in vivo; conditions: for Increase in HDL-cholesterol levels (%): further experiment, oral twice daily 14 days, dose equimolar to 25 mg/kg of ST2195, 8 hours after last treatment
Experimental: Increase in HDL-Cholesterol Levels in db/db Mice
In this experiment db/db mice were used in which PPARα expression is above normal (Memon et al., Endocrinology 2000, 4021-4031) and HDL-cholesterol levels are substantially elevated (Silver et al., J Biol Chem 1999, 274: 4140-4146).
The C57BL[KsJ db/db mice were acclimatised for one week in standard conditions (22±2° C.; 55±15% humidity; 15-20 air changes/hour; 12 hours light/darkness cycle with light from 7.00 a.m. to 7 p.m.) with a standard 4 RF21 diet (Mucedola). Blood samples were taken in post-absorption conditions (fasting from 8.30 a.m. to 4.30 p.m.) from the caudal vein with the aid of a Jelco 22G catheter (Johnson and Johnson). Glucose, insulin, triglyceride, cholesterol, free fatty acid and urea levels were checked in plasma for a homogeneous distribution of the mice in the treatment groups.
At the beginning of treatment the animals' body weight was checked and arrangements were made to monitor their water and feed consumption. […]
The compound tested, obtained as described in example 4 (ST 1929) was administered at the dose of 24 mg/kg in 10 ml/kg of vehicle (1% CMC containing Tween 80 0.5% in deionized H2O).
The other compounds tested were also administered at a dose equivalent to that in example 4.
Ciprofibrate, a known PPARα agonist (Varanasi et al., J Biol Chem 1996, 271: 2147-2155; Latruffe et al. Cell Biochem Biophys 2000, 32 Spring: 213-220) was administered at the dose of 20 mg/kg (Dwivedi et al., Toxicol Pathol 1989, 17: 16-26; Qi et al., Proc Natl Acad Sci USA 1999, 96: 1585-1590).
The animals were sacrificed (by decapitation) in conditions of post-absorption (fasting from 9.30 a.m. to 4.30 p.m.) 7 hours after the last treatment. The levels of a number of important lipid and carbohydrate metabolism parameters were determined in the serum.
The HDL-cholesterol levels were measured by treating the serum with phosphotungstic-acid-based precipitating reagent (ABX Diagnostics) which removes the chylomicrons, very low density and low density lipoproteins and determining the HDL-cholesterol levels in the supernatant with the aid of the Cholesterol Kit (ABX Diagnostics) and the Cobas Mira S Autoanalyzer (Roche).
In a further experiment, where the above reported ST2195 was used as reference compound, db/db mice were treated orally twice daily (8.30 a.m. and 6.30 p.m.) for 14 days with the test items (equimolar to 25 mg/kg of ST2 195) giving the following results reported in Table 3: […]

[2] = target: T1, Gal4DBD/PPARαLBD (Homo sapiens, UniProt Q07869); assay: Transient transfection of COS-7 cells, Gal4DBD/PPARαLBD transactivation, CAT reporter (II method); assay type: cell-based; conditions: for activation at 2 µM / activation at 20 µM / activation at 100 µM: read-out: percentage activation of the CAT reporter gene compared to reference compound WY-14.643 2 μM taken as 100%
T1 construct: expressed in transfected cells; host or cells: COS-7 (monkey kidney fibroblasts)
T1 sequence (Q07869 239-466 limits assumed): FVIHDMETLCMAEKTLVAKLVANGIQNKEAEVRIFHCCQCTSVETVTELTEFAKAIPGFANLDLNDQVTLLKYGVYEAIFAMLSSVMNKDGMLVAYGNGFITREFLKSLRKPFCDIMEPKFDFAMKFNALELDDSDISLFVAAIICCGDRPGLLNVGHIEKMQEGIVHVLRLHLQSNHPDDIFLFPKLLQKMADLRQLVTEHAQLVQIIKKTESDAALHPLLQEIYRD
Description: Transient Transfection of Eukaryotic Cells to Evaluate the Agonist Activity of PPARα Ligands (II Method)
An alternative transactivation system, which differs mainly in the way the receptor is positioned onto the DNA, and depending on how the event of ligand binding is translated into transcriptional activation, was used.
In this model eukaryotic cells were transiently transfected with an expression vector encoding a fusion protein between the DNA binding domain (DBD) of the yeast Gal4 transcription factor and the ligand binding domain (LBD) of the PPARα (Gal4DBD/PPARαLBD). The reporter vector containing 5 copies of the high affinity binding site for Gal4 (named UAS, upstream activating sequence) upstream of a strong viral promoter linked to the reporter gene chloramphenicol acetyltransferase (CAT), was co-transfected. This model offered some advantages, the most important of which was the absence of interference by endogenous receptors.
Besides expression and reporter vectors, cells were transfected with a control vector pCH110 that encodes the β-galactosidase enzyme to correct for differences in transfection efficiency.
A monkey kidney fibroblast cell line (COS-7) was used. Cells were co-transfected with the plasmid carrying the gene-reporter, the expression plasmid encoding the fusion protein Gal4DBD/PPARαLBD, and the control vector pCH110. Cells were then treated with increasing concentrations of test compounds and the CAT activity was measured. Untreated cells were used as control.
Monkey kidney fibroblasts (COS-7) were routinely grown in DMEM (Dulbecco's modified Eagle's medium) supplemented with 3.7 g/l sodium bicarbonate, 4 mM L-glutamine, 4.5 g/l glucose, 1 mM sodium piruvate and 10% v/v foetal bovine serum, in the presence of streptomycin 100 μg/ml and penicillin 100 U/ml.
COS-7 cells were transiently transfected by using the multi-component lipid-based FuGENE6 Transfection Reagent that complexes with and transports DNA into the cells during transfection. Cells were seeded at 1.2×10^5 cells/well, in 12-well plates, and cultured overnight at 37° C. in a 5% v/v carbon dioxide atmosphere. Two hours before transfection the culture medium was replaced by fresh serum-free medium and then transfection was performed with FuGENE6 Transfection Reagent according to the instructions of the manufacturer. Briefly, the transfection mixture containing (for each well) 0.8 μg of the expression vector, 1.6 μg of the reporter vector, 0.8 μg of the control vector and 9 μl of FuGENE6 Transfection Reagent was added directly to the cells in the presence of serum-free medium. After 5 hours the transfection medium was replaced by 1 ml of the complete culture medium with or without the test molecules at 3 different concentrations (2, 20 and 100 μM). 2 μM Wy-14,643, a known PPARα ligand, was used as positive control.
After 48 h, the cells were washed twice with 1 ml phosphate buffer (PBS) and then harvested by scraping them in TEN buffer (Tris [hydroxymethyl] aminomethane 10 mM pH 8, ethylenediamine tetraacetic acid 1 mM, pH 8, sodium chloride 0.1 M). Following centrifugation at room temperature, for 3 min at 1000 revs per minute (rpm), cells were resuspended with 60 μl of Lysis buffer (0.25M Tris-HCl, pH 8) and lysed by three rapid freeze/thaw cycles (three 5-minute cycles). Cell debris was then removed by centrifugating at 4° C., for 15 min at 15.000 revs per minute (rpm),. Glycerol (final 10% v/v) and β-mercaptoethanol (final 5 mM) were then added (final volume 75 μl) and the cell extracts were stored at −80° C. until assayed.
The CAT activity assay was performed as follows: 20 μl of cell lysate (pre-warmed at 65° C. for 10 min to deactivate internal deacetylase enzymatic activity) were added to 10 μl of 3.5 mg/ml n-butirryl-CoA, 5 μl ([…]) of [14C]-chloramphenicol and 65 μl of distilled H20 and incubated 2 h at 37° C. Reaction was blocked by adding 200 μl of the solution xylene/2,6,10,14 tetramethyl-pentadecane (in a 1:2 v/v mixture). […]

Compound | activation at 2 µM ([2]; 2 μM) [%] | activation at 20 µM ([2]; 20 μM) [%] | activation at 100 µM ([2]; 100 μM) [%] | also measured
COC(=O)C(C)(C)Sc1cccc(OC(=O)Nc2ccc(C(F)(F)F)cc2)c1 |  |  |  | melting point: 66 to 67 °C
COC(=O)C(C)(C)Sc1ccc(OCCn2ccc3ccccc32)cc1 [ST1983] |  |  |  | Increase in HDL-cholesterol levels (%) [1]: +69Δ %; percentage activation of the CAT reporter gene compared to reference compound WY-14.643 2 μM taken as 100% ([2]; 2 μM): 150%; percentage activation of the CAT reporter gene compared to reference compound WY-14.643 2 μM taken as 100% ([2]; 20 μM): 391.2%; percentage activation of the CAT reporter gene compared to reference compound WY-14.643 2 μM taken as 100% ([2]; 100 μM): 1372%
COc1ccc2c(ccn2CCOc2ccc(SC(C)(C)C(=O)O)cc2)c1 [ST2733, 2-[4-[2-(1-(5-methoxy)indolyl)ethoxy]phenyl-thio]isobutyric acid] | 77.2 | 193 | 239 | Increase in HDL/cholesterol levels (%) ([1]; second experiment, 26.4 mg/kg, 16 days): +70[…] %
CC(C)(Oc1ccc(CCNC(=O)c2ccc(Cl)cc2)cc1)C(=O)O [Bezafibrate, reference compound] |  |  |  | Increase in HDL/cholesterol levels (%) ([1]; 24.8 mg/kg, 25 days): +14%
COC(=O)C(C)(C)Sc1ccc(O)cc1 [ST1923, methyl 2-(4-hydroxyphenylthio)isobutyrate] |  |  |  | melting point: 110 to 112 °C
COC(=O)C(C)(C)Sc1cccc(OCCn2c3ccccc3c3ccccc32)c1 [ST2365, methyl 2-[3-(2-(carbazol-9-yl)ethoxy)phenyl-thio]isobutyrate] |  |  |  | melting point: 101 to 103 °C
CC(C)(Sc1ccc(OCCn2ccc3cc(OCc4ccccc4)ccc32)cc1)C(=O)O [ST2740, 2-[4-[2-(1-(5-benzyloxy)indolyl)ethoxy]phenyl-thio]isobutyric acid] | 150 | 177 | 115 | 
COC(=O)C(C)(C)Sc1cccc(OCCc2ccc(Cl)cc2)c1 [ST2195, methyl 2-[3-[2-(4-chlorophenyl)ethoxy]phenyl-thio]isobutyrate] |  |  |  | Increase in HDL/cholesterol levels (%) ([1]; 25.0 mg/kg, 25 days): +20ρ %; Increase in HDL-cholesterol levels (%) [1]: +67Δ %
CC(C)(Sc1ccc(OCCc2ccc(Cl)cc2)cc1)C(=O)O [ST 2505, 2-[4-[2-(4-chlorophenyl)ethoxy]phenylthio]-2-methylpropanoic acid] |  |  |  | melting point: 87 to 88 °C
CC(C)(Oc1ccc(C2CC2(Cl)Cl)cc1)C(=O)O (centres unmarked) [Ciprofibrate, reference compound] |  |  |  | Increase in HDL/cholesterol levels (%) ([1]; oral twice daily, 20 mg/kg, 14 days): +52 ▴ %
COC(=O)C(C)(C)Sc1cccc(OCCc2ccc(Cl)cc2Cl)c1 [ST2534, methyl 2-[3-(2-(2,4-dichloro-phenyl)ethoxy)phenylthio]isobutyrate] | 113 | 285 | 421 | Increase in HDL-cholesterol levels (%) [1]: +61Δ %
COC(=O)C(C)(C)Sc1ccc(OCCn2ccc3cc(OCc4ccccc4)ccc32)cc1 [ST2562, methyl 2-[4-[2-(1-(5-benzyloxy)indolyl)ethoxy]phenyl-thio]isobutyrate] | 139 | 291 | 249 | 
COC(=O)C(C)(C)Sc1cccc(OCCc2ccc3ccccc3c2)c1 [ST2167, methyl 2-[3-[2-(2-naphthyl)ethoxy]phenyl-thio]isobutyrate] | 98.1 | 360 | 463 | Increase in HDL/cholesterol levels (%) ([1]; 26.1 mg/kg, 25 days): +29ρ %
COC(=O)C(C)(C)Sc1ccc(OCCc2ccc(Cl)cc2)cc1 [ST1929] |  |  |  | Increase in HDL/cholesterol levels (%) ([1]; oral twice daily, 24 mg/kg, 10 days): +80 ▴ %
CC(C)(Sc1cccc(OCCc2ccc(Cl)cc2Cl)c1)C(=O)O [ST2653, 2-[3-(2-(2,4-dichlorophenyl)ethoxy)phenyl-thio]-2-isobutyric acid] | 132 | 199 | 204 | 
CC(C)(Sc1ccc(OCCn2ccc3ccccc32)cc1)C(=O)O [ST2622, 2-[4-[2-(1-indolyl)ethoxy]phenyl-thio]-isobutyric acid] | 105 | 231 | 311 | Increase in HDL-cholesterol levels (%) [1]: +54Δ %
COC(=O)C(C)(C)Sc1ccc(OCCn2ccc3cc(OC)ccc32)cc1 [ST2577, methyl 2-[4-[2-(1-(5-methoxy)indolyl)ethoxy]phenyl-thio]isobutyrate] | 98.6 | 269 | 255 | 
